# From US8637510B2, “Morpholinothiazoles as alpha 7 positive allosteric modulators” (Janssen Pharmaceutica NV, priority 2009, dated 2014)
# Columns and labels:
# human alpha 7-wt nAChR = biological target: T1, human alpha 7-wt nAChR (Homo sapiens, UniProt P36544); assay: Ca2+ flux imaging (FDSS) (Protocol B); format: cell-based; conditions: for Emax / a7-PAM-G_[33]_Eff_Curve_FI % Efficacy: efficacy of 100 μM choline defined as 100% in the absence of a PAM; for Emax: read-out: a7-PAM-G_[33]_Eff_Curve_FI % Efficacy; for EC50: potentiation of 100 μM choline, compounds 0.01 μM to 30 μM, read-out: a7-PAM-G_[33]_pEC50 pEC50 (converted)
# T1 construct: expressed in transfected cells
# Procedure, shortened: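 PAM activity was measured as FDSS calcium fluorescence in α7-wt nAChR cells loaded with 2 μM Fluo-4AM, with compounds at 0.01–30 μM added alongside or 10 min ahead of sub-maximal 100 μM choline. Peak responses were normalised to choline-only efficacy, and EC50 was taken at half-maximal effect.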
# [1] = biological target: T2, human alpha 7-wt nAChR-expressing GH4C1 cells (Homo sapiens, UniProt P36544); assay: Patch-clamp current recording (whole-cell voltage-clamp, PAM type classification); format: cell-based; set-up: key: Type 0 compounds minimally change the effect size of the current elicited by 1 mM choline.; Type 1 compounds enhance the effect size of the current elicited by 1 mM choline but minimally alter the kinetics of the receptor.; Type 2 compounds enhance the effect size of the current elicited by 1 mM choline while reducing the rate and/or the extent of desensitization.; Type 3 compounds enhance the effect size of the current elicited by 1 mM choline. When tested at higher concentrations up to 10 μM they completely inhibit desensitization; Type 4 compounds allow for an initial desensitization of the receptor followed by a re-opening of the receptor during agonist application; conditions: 1 mM choline
# T2 construct: expressed in transfected cells
# Procedure, shortened: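 Whole-cell voltage clamp of GH4C1 cells stably expressing human wild-type α7 nAChR, with compound co-applied with 1 mM choline via rapid (<100 ms) solution switching; external pH 7.3, CsCl-based internal solution, 1.5-3 MΩ electrodes. PAM type (0-4) assigned from current kinetics when peak potentiation reached ≥200% of control choline response.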
# T1 sequence (P36544 23-502): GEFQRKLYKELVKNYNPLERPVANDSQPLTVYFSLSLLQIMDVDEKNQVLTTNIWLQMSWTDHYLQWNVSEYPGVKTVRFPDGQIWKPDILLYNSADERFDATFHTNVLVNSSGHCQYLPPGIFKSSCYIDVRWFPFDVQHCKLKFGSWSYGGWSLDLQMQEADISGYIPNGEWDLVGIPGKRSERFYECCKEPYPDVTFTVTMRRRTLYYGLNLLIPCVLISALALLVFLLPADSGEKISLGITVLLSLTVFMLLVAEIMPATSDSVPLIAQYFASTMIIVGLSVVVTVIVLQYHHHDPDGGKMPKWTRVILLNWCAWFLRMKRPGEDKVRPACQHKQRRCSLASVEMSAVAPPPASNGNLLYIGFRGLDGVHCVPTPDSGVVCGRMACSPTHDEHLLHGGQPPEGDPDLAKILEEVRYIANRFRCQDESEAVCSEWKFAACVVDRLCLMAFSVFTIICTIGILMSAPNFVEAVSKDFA
# T2 sequence (P36544 23-502): as above
Emax (human alpha 7-wt nAChR) [%],EC50 (human alpha 7-wt nAChR) [nM],melting point [°C],a7-PAM-G_[33]_Eff_Curve_FI % Efficacy (human alpha 7-wt nAChR) [%],Structure (SMILES),PAM_Type PAM type [1]
459,324,203,–,"COc1cc(-c2sc(N3C[C@@H](C)O[C@@H](C)C3)nc2CNC(=O)c2cc(C)on2)cc(C)n1 [Compound 82, N-[[2-[(2R,6S)-2,6-dimethyl-4-morpholinyl]-5-(2-methoxy-6-methyl-4-pyridinyl)-4-thiazolyl]methyl]-5-methyl-3-isoxazolecarboxamide]",1
898,603,194,–,"Cc1cc(-c2sc(N3CC4CCC(C3)O4)nc2CNC(=O)c2ccc(F)cc2C)cc(C)n1 [Compound 208, N-[[5-(2,6-dimethyl-4-pyridinyl)-2-(8-oxa-3-azabicyclo[3.2.1]oct-3-y1)-4-thiazolyl]methyl]-4-fluoro-2-methyl-benzamide]",2
–,813,208,–,"Cc1cc(-c2sc(N3C[C@@H](C)O[C@@H](C)C3)nc2CNC(=O)c2cc(C)on2)cc(C)n1 [Compound 3, N-[[2-[(2R,6S)-2,6-dimethyl-4-morpholinyl]-5-(2,6-dimethyl-4-pyridinyl)-4-thiazolyl]methyl]-5-methyl-3-isoxazolecarboxamide]",1
–,363,205,–,"Cc1nocc1C(=O)NCc1nc(N2C[C@@H](C)O[C@@H](C)C2)sc1-c1ccnc(C(F)(F)F)c1 [Compound 197, N-[[2-[(2R,6S)-2,6-dimethyl-4-morpholinyl]-5-[2-(trifluoromethyl)-4-pyridinyl]-4-thiazolyl]methyl]-3-methyl-4-isoxazolecarboxamide]",1
430,1860,148,–,"Cc1ccc(-c2sc(N3C[C@@H](C)O[C@@H](C)C3)nc2CNC(=O)c2cc(C)on2)cn1 [Compound 118, N-[[2-[(2R,6S)-2,6-dimethyl-4-morpholinyl]-5-(6-methyl-3-pyridinyl)-4-thiazolyl]methyl]-5-methyl-3-isoxazolecarboxamide]",0
930,245,216,–,"CC(C)C(=O)NCc1nc(N2C[C@@H](C)O[C@@H](C)C2)sc1-c1ccnc(C(F)(F)F)c1 [Compound 201, N-[[2-[(2R,6S)-2,6-dimethyl-4-morpholinyl]-5-[2-(trifluoromethyl)-4-pyridinyl]-4-thiazolyl]methyl]-2-methyl-propanamide]",1
–,1170,169,919,"Cc1cc(-c2sc(N3CCOC(C)C3)nc2CNC(=O)CC2CC2)cc(C)n1 (single isomer, unassigned) [Compound 78, N-[[5-(2,6-dimethyl-4-pyridinyl)-2-[(2S*)-2-methyl-4-morpholinyl]-4-thiazolyl]methyl]-cyclopropaneacetamide]",2
819,56.2,178,–,"Cc1cc(-c2sc(N3CCOC(C(F)(F)F)C3)nc2CNC(=O)c2conc2C)cc(C)n1 (stereo not shown) [Compound 196, N-[[5-(2,6-dimethyl-4-pyridinyl)-2-[2-(trifluoromethyl)-4-morpholinyl]-4-thiazolyl]methyl]-3-methyl-4-isoxazolecarboxamide]",2
–,692,188,–,"Cc1cc(-c2sc(N3CCOC(C)C3)nc2CNC(=O)C(C)C)cc(C)n1 (single isomer, unassigned) [Compound 71, N-[[5-(2,6-dimethyl-4-pyridinyl)-2-[(2S*)-2-methyl-4-morpholinyl]-4-thiazolyl]methyl]-2-methyl-propanamide]",2
–,1020,170,819,"Cc1cc(-c2sc(N3CCOC(C)C3)nc2CNC(=O)CC2CC2)cc(C)n1 (single isomer, unassigned) [Compound 75, N-[[5-(2,6-dimethyl-4-pyridinyl)-2-[(2R*)-2-methyl-4-morpholinyl]-4-thiazolyl]methyl]-cyclopropaneacetamide]",2
705,3160,161,–,"Cc1cc(-c2sc(N3CC4CCC(C3)O4)nc2CNC(=O)CC2CC2)cc(C)n1 [Compound 209, N-[[5-(2,6-dimethyl-4-pyridinyl)-2-(8-oxa-3-azabicyclo[3.2.1]oct-3-y1)-4-thiazolyl]methyl]-cyclopropaneacetamide]",0
995,74.1,182,–,"Cc1cc(-c2sc(N3CCO[C@@H](C(F)(F)F)C3)nc2CNC(=O)CC2CC2)cc(C)n1 [Compound 191, N-[[5-(2,6-dimethyl-4-pyridinyl)-2-[(2R)-2-(trifluoromethyl)-4-morpholinyl]-4-thiazolyl]methyl]-cyclopropaneacetamide]",2
–,70.8,168,–,"Cc1cc(-c2sc(N3CCOC(C(F)(F)F)C3)nc2CNC(=O)CC2CC2)cc(C)n1 (stereo not shown) [Compound 190, N-[[5-(2,6-dimethyl-4-pyridinyl)-2-[2-(trifluoromethyl)-4-morpholinyl]-4-thiazolyl]methyl]-cyclopropaneacetamide]",2
736,562,177,–,"Cc1cc(-c2sc(N3C[C@@H](C)O[C@@H](C)C3)nc2CNC(=O)CC2CC2)ccn1 [Compound 88, N-[[2-[(2R,6S)-2,6-dimethyl-4-morpholinyl]-5-(2-methyl-4-pyridinyl)-4-thiazolyl]methyl]-cyclopropaneacetamide]",2
491,490,155,–,"Cc1cc(-c2sc(N3C[C@@H](C)O[C@@H](C)C3)nc2CNC(=O)c2ccccc2Cl)ccn1 [Compound 90, 2-chloro-N-[[2-[(2R,6S)-2,6-dimethyl-4-morpholinyl]-5-(2-methyl-4-pyridinyl)-4-thiazolyl]methyl]-benzamide]",2
443,102,171,–,"COc1cc(-c2sc(N3C[C@@H](C)O[C@@H](C)C3)nc2CNC(=O)C2CCC2)cc(C)n1 [Compound 84, N-[[2-[(2R,6S)-2,6-dimethyl-4-morpholinyl]-5-(2-methoxy-6-methyl-4-pyridinyl)-4-thiazolyl]methyl]-cyclobutanecarboxamide]",2
320,708,172,–,"COc1cc(-c2sc(N3C[C@@H](C)O[C@@H](C)C3)nc2CNC(=O)c2cccc(F)c2)cc(C)n1 [Compound 85, N-[[2-[(2R,6S)-2,6-dimethyl-4-morpholinyl]-5-(2-methoxy-6-methyl-4-pyridinyl)-4-thiazolyl]methyl]-3-fluoro-benzamide]",0
–,224,197,–,"Cc1cc(-c2sc(N3CCOC(C)(C)C3)nc2CNC(=O)c2ccc(F)cc2C)cc(C)n1 [Compound 157, N-[[2-(2,2-dimethyl-4-morpholinyl)-5-(2,6-dimethyl-4-pyridinyl)-4-thiazolyl]methyl]-4-fluoro-2-methyl-benzamide]",2
